Target: T1, FK506 binding protein 12 (FKBP12) (Homo sapiens, UniProt P42345+P62942)
T1 construct: gene FKBP1A; pAsh-FKBP12 co-transfected with phAG-mTOR in HeLa cells; with mTOR
Assay: Fluoppi cell assay of FKBP12-mTOR ternary complex formation in HeLa cells
Type: cell-based

T1 sequence (P62942 2-108, other chains not shown): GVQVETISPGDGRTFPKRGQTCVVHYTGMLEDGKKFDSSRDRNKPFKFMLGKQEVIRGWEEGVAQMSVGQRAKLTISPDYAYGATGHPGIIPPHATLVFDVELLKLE

EC50: 1880 nM
Compound: COC1CC(O)CC(=O)CC(=O)N2CCCCC2C(=O)OC(C(C)CC2CCC(O)C(OC)C2)CC(=O)C(C)C=C(C)C(O)C(OC)C(=O)C(C)CC(C)C=CC=CC=C1C (mixture of isomers) [compound 1, 1]

Source: publication PMC8113240 (Scientific Reports, 2021)
